Where two headings read alike, the source gives them in different places.
How the values were obtained:
P450 3A2 = assay: Gene expression (fold change) of known genes in toxin-treated rat liver, cDNA library transcript imaging; type: in vivo; conditions: clofibrate-treated rat liver, vs untreated liver
P450 4A = conditions: clofibrate-treated rat liver, vs untreated liver
[1] = system: rat liver cDNAs SEQ ID NOs: 62-202; assay: Abundance of cDNA clones in toxin-treated rat liver cDNA libraries (transcript imaging), Sprague-Dawley; type: in vivo; conditions: Strain SD
Experimental: Columns 1 and 2 show the SEQ ID NO and Clone ID of the rat cDNA clone, respectively.
Abundance of a clone was determined by counting the number of clones present in a master cluster.
Abundance of a particular cDNA in the library profile was determined by summing the total number of copies of the clones present in the master cluster in that library.

P450 LA-omega 4A3 = assay: Gene expression (fold change) of known genes in toxin-treated rat liver, cDNA library transcript imaging; conditions: clofibrate-treated rat liver, vs untreated liver
[2] = system: rat liver cDNAs SEQ ID NOs: 1-61; type: in vivo, Han/Wistar rat; conditions: Strain HW

CCOC(=O)C(C)(C)Oc1ccc(Cl)cc1 [clofibrate]
Gene expression (fold change) P450 3A2 (P450 3A2; 12 hours): 0.14 fold change | Gene expression (fold change) P450 3A2 (P450 3A2; 24 hours): 1.2 fold change | Gene expression (fold change) P450 3A2 (P450 3A2; 3 days): 0.63 fold change | Gene expression (fold change) P450 3A2 (P450 3A2; 7 days): 0.50 fold change | Gene expression (fold change) P450 3A2 (P450 3A2; 28 days): 0.45 fold change | Gene expression (fold change) P450 4A (P450 4A; 12 hours): 7.0 fold change | Gene expression (fold change) P450 4A (P450 4A; 24 hours): 16.6 fold change | Gene expression (fold change) P450 4A (P450 4A; 3 days): 1.4 fold change | Gene expression (fold change) P450 4A (P450 4A; 7 days): 0.5 fold change | Gene expression (fold change) P450 4A (P450 4A; 28 days): 1.3 fold change | Maximum Abundance, SEQ ID NO 110, Clone ID 700192259 [1]: 5 | Maximum Abundance, SEQ ID NO 111, Clone ID 700269330 [1]: 4 | Maximum Abundance, SEQ ID NO 112, Clone ID 701317696 [1]: 5 | Maximum Abundance, SEQ ID NO 163, Clone ID 700025278 [1]: 4 | Maximum Abundance, SEQ ID NO 164, Clone ID 700122008 [1]: 6 | Maximum Abundance, SEQ ID NO 165, Clone ID 700136662 [1]: 3 | Maximum Abundance, SEQ ID NO 166, Clone ID 700144043 [1]: 4 | Maximum Abundance, SEQ ID NO 167, Clone ID 700177423 [1]: 3 | Maximum Abundance, SEQ ID NO 168, Clone ID 700247621 [1]: 4 | Maximum Abundance, SEQ ID NO 169, Clone ID 700251379 [1]: 3 | Maximum Abundance, SEQ ID NO 170, Clone ID 700272988 [1]: 5 | Maximum Abundance, SEQ ID NO 171, Clone ID 700306859 [1]: 3 | Maximum Abundance, SEQ ID NO 172, Clone ID 700307013 [1]: 3 | Maximum Abundance, SEQ ID NO 173, Clone ID 700323707 [1]: 4 | Maximum Abundance, SEQ ID NO 174, Clone ID 700513589 [1]: 4 | Maximum Abundance, SEQ ID NO 175, Clone ID 700538641 [1]: 3 | Maximum Abundance, SEQ ID NO 176, Clone ID 700592657 [1]: 3 | Maximum Abundance, SEQ ID NO 177, Clone ID 701190918 [1]: 3 | Maximum Abundance, SEQ ID NO 178, Clone ID 701313456 [1]: 3 | Maximum Abundance, SEQ ID NO 179, Clone ID 701397319 [1]: 3 | Maximum Abundance, SEQ ID NO 180, Clone ID 701429135 [1]: 6 | Maximum Abundance, SEQ ID NO 181, Clone ID 701429654 [1]: 3 | Maximum Abundance, SEQ ID NO 182, Clone ID 701458841 [1]: 3 | Maximum Abundance, SEQ ID NO 183, Clone ID 701470083 [1]: 3 | Maximum Abundance, SEQ ID NO 184, Clone ID 701562608 [1]: 3 | Maximum Abundance, SEQ ID NO 185, Clone ID 701884534 [1]: 5 | Maximum Abundance, SEQ ID NO 186, Clone ID 700068662 [1]: 6 | Maximum Abundance, SEQ ID NO 187, Clone ID 700933309 [1]: 5 | Maximum Abundance, SEQ ID NO 201, Clone ID 700062503 [1]: 3 | Maximum Abundance, SEQ ID NO 113, Clone ID 700230724 ([1]; Sex F): 4 | Maximum Abundance, SEQ ID NO 114, Clone ID 700307025 ([1]; Sex F): 4 | Maximum Abundance, SEQ ID NO 115, Clone ID 700361295 ([1]; Sex F): 3 | Maximum Abundance, SEQ ID NO 116, Clone ID 700420930 ([1]; Sex F): 3 | Maximum Abundance, SEQ ID NO 117, Clone ID 700526706 ([1]; Sex F): 3 | Maximum Abundance, SEQ ID NO 118, Clone ID 700635732 ([1]; Sex F): 3 | Maximum Abundance, SEQ ID NO 119, Clone ID 700824178 ([1]; Sex F): 3 | Maximum Abundance, SEQ ID NO 120, Clone ID 701396706 ([1]; Sex F): 4 | Maximum Abundance, SEQ ID NO 121, Clone ID 701475987 ([1]; Sex F): 3 | Maximum Abundance, SEQ ID NO 122, Clone ID 701621131 ([1]; Sex F): 3 | Maximum Abundance, SEQ ID NO 123, Clone ID 701879551 ([1]; Sex F): 3 | Maximum Abundance, SEQ ID NO 124, Clone ID 701883446 ([1]; Sex F): 3 | Maximum Abundance, SEQ ID NO 125, Clone ID 701883859 ([1]; Sex F): 3 | Maximum Abundance, SEQ ID NO 188, Clone ID 700024288 ([1]; Sex F): 2 | Maximum Abundance, SEQ ID NO 189, Clone ID 700064545 ([1]; Sex F): 3 | Maximum Abundance, SEQ ID NO 190, Clone ID 700066933 ([1]; Sex F): 2 | Maximum Abundance, SEQ ID NO 191, Clone ID 700146747 ([1]; Sex F): 3 | Maximum Abundance, SEQ ID NO 192, Clone ID 700589657 ([1]; Sex F): 3 | Maximum Abundance, SEQ ID NO 193, Clone ID 700858043 ([1]; Sex F): 1 | Maximum Abundance, SEQ ID NO 109, Clone ID 700250903 ([1]; Sex M): 11 | Maximum Abundance, SEQ ID NO 126, Clone ID 700122019 ([1]; Sex M): 4 | Maximum Abundance, SEQ ID NO 127, Clone ID 700276321 ([1]; Sex M): 4 | Maximum Abundance, SEQ ID NO 128, Clone ID 700323126 ([1]; Sex M): 3 | Maximum Abundance, SEQ ID NO 129, Clone ID 700324604 ([1]; Sex M): 3 | Maximum Abundance, SEQ ID NO 130, Clone ID 700363120 ([1]; Sex M): 3 | Maximum Abundance, SEQ ID NO 131, Clone ID 700364810 ([1]; Sex M): 3 | Maximum Abundance, SEQ ID NO 132, Clone ID 700510701 ([1]; Sex M): 4 | Maximum Abundance, SEQ ID NO 133, Clone ID 700810877 ([1]; Sex M): 5 | Maximum Abundance, SEQ ID NO 134, Clone ID 700928985 ([1]; Sex M): 6 | Maximum Abundance, SEQ ID NO 135, Clone ID 700931410 ([1]; Sex M): 4 | Maximum Abundance, SEQ ID NO 136, Clone ID 701093657 ([1]; Sex M): 4 | Maximum Abundance, SEQ ID NO 137, Clone ID 701259518 ([1]; Sex M): 3 | Maximum Abundance, SEQ ID NO 138, Clone ID 701264516 ([1]; Sex M): 4 | Maximum Abundance, SEQ ID NO 139, Clone ID 701341715 ([1]; Sex M): 4 | Maximum Abundance, SEQ ID NO 140, Clone ID 701434939 ([1]; Sex M): 4 | Maximum Abundance, SEQ ID NO 141, Clone ID 701460429 ([1]; Sex M): 3 | Maximum Abundance, SEQ ID NO 142, Clone ID 701463285 ([1]; Sex M): 4 | Maximum Abundance, SEQ ID NO 143, Clone ID 701605992 ([1]; Sex M): 4 | Maximum Abundance, SEQ ID NO 144, Clone ID 701737185 ([1]; Sex M): 3 | Maximum Abundance, SEQ ID NO 145, Clone ID 701737221 ([1]; Sex M): 4 | Maximum Abundance, SEQ ID NO 146, Clone ID 701920170 ([1]; Sex M): 3 | Maximum Abundance, SEQ ID NO 147, Clone ID 701922204 ([1]; Sex M): 3 | Maximum Abundance, SEQ ID NO 148, Clone ID 701922375 ([1]; Sex M): 4 | Maximum Abundance, SEQ ID NO 149, Clone ID 701922439 ([1]; Sex M): 4 | Maximum Abundance, SEQ ID NO 150, Clone ID 701922513 ([1]; Sex M): 4 | Maximum Abundance, SEQ ID NO 151, Clone ID 701922576 ([1]; Sex M): 4 | Maximum Abundance, SEQ ID NO 152, Clone ID 701922583 ([1]; Sex M): 3 | Maximum Abundance, SEQ ID NO 153, Clone ID 701922711 ([1]; Sex M): 3 | Maximum Abundance, SEQ ID NO 154, Clone ID 701922744 ([1]; Sex M): 4 | Maximum Abundance, SEQ ID NO 155, Clone ID 701922971 ([1]; Sex M): 3 | Maximum Abundance, SEQ ID NO 156, Clone ID 701923019 ([1]; Sex M): 5 | Maximum Abundance, SEQ ID NO 157, Clone ID 701923022 ([1]; Sex M): 3 | Maximum Abundance, SEQ ID NO 158, Clone ID 701923218 ([1]; Sex M): 4 | Maximum Abundance, SEQ ID NO 159, Clone ID 701923240 ([1]; Sex M): 4 | Maximum Abundance, SEQ ID NO 160, Clone ID 701923241 ([1]; Sex M): 3 | Maximum Abundance, SEQ ID NO 161, Clone ID 701923330 ([1]; Sex M): 3 | Maximum Abundance, SEQ ID NO 162, Clone ID 701925484 ([1]; Sex M): 4 | Maximum Abundance, SEQ ID NO 194, Clone ID 700060595 ([1]; Sex M): 3 | Maximum Abundance, SEQ ID NO 195, Clone ID 700061212 ([1]; Sex M): 3 | Maximum Abundance, SEQ ID NO 196, Clone ID 700062747 ([1]; Sex M): 2 | Maximum Abundance, SEQ ID NO 197, Clone ID 700124248 ([1]; Sex M): 3 | Maximum Abundance, SEQ ID NO 198, Clone ID 700252787 ([1]; Sex M): 3 | Maximum Abundance, SEQ ID NO 199, Clone ID 700272719 ([1]; Sex M): 3 | Maximum Abundance, SEQ ID NO 200, Clone ID 700282789 ([1]; Sex M): 3 | Gene expression (fold change) P450 LA-omega 4A3 (P450 LA-omega 4A3; 12 hours): 14.8 fold change | Gene expression (fold change) P450 LA-omega 4A3 (P450 LA-omega 4A3; 24 hours): 26.6 fold change | Gene expression (fold change) P450 LA-omega 4A3 (P450 LA-omega 4A3; 3 days): 1.1 fold change | Gene expression (fold change) P450 LA-omega 4A3 (P450 LA-omega 4A3; 7 days): 0.5 fold change | Gene expression (fold change) P450 LA-omega 4A3 (P450 LA-omega 4A3; 28 days): 0.47 fold change | Maximum Abundance, SEQ ID NO 9, Clone ID 700308908 [2]: 6 | Maximum Abundance, SEQ ID NO 11, Clone ID 700131403 [2]: 4 | Maximum Abundance, SEQ ID NO 10, Clone ID 700139239 ([2]; Sex M): 4

— patent publication US20030165854A1, “Marker genes responding to treatment with toxins” (priority 2000, published 2003)
